Values of other authors as cited in patent EP3292864A1, “MODIFIED RELEASE TABLET COMPOSITION COMPRISING MIRABEGRON” (Synthon B.V., priority 2017, dated 2018).

Compound: Nc1nc(CC(=O)Nc2ccc(CCNC[C@H](O)c3ccccc3)cc2)cs1 [Mirabegron, (R)-2-(2-aminothiazol-4-yl)-4'-[2-[(2-hydroxy-2-phenylethyl)amino]ethyl]acetic acid anilide]
- solubility in water (assessment report of Betmiga® published by the European Medicines Agency): soluble in water between neutral to acidic pH
- solubility (per BCS class): high solubility
